Legend:
Zymoseptoria tritici = test: Leaf blotch of wheat (SEPTTR) disease control on wheat seedlings; format: in vivo; parameters: key to SEPTTR 1DP, HV activity at 100 ppm (% control rating) / SEPTTR 3DC, HV activity at 100 ppm (% control rating) / SEPTTR disease control, 1DP / SEPTTR disease control, 3DC / SEPTTR 1DP disease control rating, HV activity / SEPTTR 3DC disease control rating, HV activity / SEPTTR 3DC, LV activity at 125.1 g/H (% Control rating) / SEPTTR 1DP, LV activity at 125.1 g/H (% Control rating) / SEPTTR 1DP disease control rating, LV activity at 125.1 g/H / SEPTTR 3DC disease control rating, LV activity at 125.1 g/H / SEPTTR 3DC disease control rating, HV activity at 100 ppm / SEPTTR 1DP disease control rating, HV activity at 100 ppm / HV activity at 100 ppm SEPTTR 3DC (disease control rating) / HV activity at 100 ppm SEPTTR 1DP (disease control rating) / LV activity at 125.1 g/H SEPTTR 1DP (disease control rating) / LV activity at 125.1 g/H SEPTTR 3DC (disease control rating): A: > 80; B: ≤ 80; C: Not Tested; D: No Activity Observed in the Reported Assay; conditions: for SEPTTR 1DP, LV activity at 125.1 g/H (% Control rating) / SEPTTR 3DC, LV activity at 125.1 g/H (% Control rating): low volume application; for SEPTTR 1DP, LV activity at 125.1 g/H (% Control rating) / SEPTTR 1DP, HV activity at 100 ppm (% control rating): 1 Day Protectant; for SEPTTR 3DC, LV activity at 125.1 g/H (% Control rating) / SEPTTR 3DC, HV activity at 100 ppm (% control rating): 3 Day Curative; for SEPTTR 1DP, HV activity at 100 ppm (% control rating) / SEPTTR 3DC, HV activity at 100 ppm (% control rating): HV application
Puccinia triticina = test: Wheat brown rust (PUCCRT) disease control on wheat seedlings; format: in vivo; conditions: for PUCCRT 1DP, LV activity at 125.1 g/H (% Control rating) / PUCCRT 3DC, LV activity at 125.1 g/H (% Control rating): low volume application; for PUCCRT 1DP, LV activity at 125.1 g/H (% Control rating) / PUCCRT 1DP, HV activity at 100 ppm (% control rating): 1 Day Protectant; for PUCCRT 3DC, LV activity at 125.1 g/H (% Control rating) / PUCCRT 3DC, HV activity at 100 ppm (% control rating): 3 Day Curative; for PUCCRT 1DP, HV activity at 100 ppm (% control rating) / PUCCRT 3DC, HV activity at 100 ppm (% control rating): HV application

SMILES | SEPTTR 1DP, LV activity at 125.1 g/H (% Control rating) (Zymoseptoria tritici) | SEPTTR 3DC, LV activity at 125.1 g/H (% Control rating) (Zymoseptoria tritici) | PUCCRT 1DP, LV activity at 125.1 g/H (% Control rating) (Puccinia triticina) | PUCCRT 3DC, LV activity at 125.1 g/H (% Control rating) (Puccinia triticina) | SEPTTR 1DP, HV activity at 100 ppm (% control rating) (Zymoseptoria tritici) | SEPTTR 3DC, HV activity at 100 ppm (% control rating) (Zymoseptoria tritici) | PUCCRT 1DP, HV activity at 100 ppm (% control rating) (Puccinia triticina) | PUCCRT 3DC, HV activity at 100 ppm (% control rating) (Puccinia triticina)
COc1ccnc(C(=O)N[C@@H](C)C(=O)O[C@@H](C)[C@H](OC(=O)C(C)C)C(C)C)c1OCOC(C)=O [Cmpd 623] | D | B (≤ 80) | A (> 80) | A (> 80) |  |  |  | 
COc1ccnc(C(=O)N[C@H](C(=O)O[C@@H](C)[C@H](Oc2cccc3ccccc23)C(C)C)C(C)C)c1OCOC(C)=O [Cmpd 624] | B (≤ 80) | D | A (> 80) | A (> 80) |  |  |  | 
COc1ccnc(C(=O)N[C@@H](C)C(=O)O[C@@H](C)[C@H](Oc2ccc(-c3ccccc3)cc2)C(C)C)c1OC(C)=O [Cmpd 625] | D | D | A (> 80) | B (≤ 80) |  |  |  | 
COc1ccnc(C(=O)N[C@@H](C)C(=O)O[C@@H](C)[C@H](Oc2cc(F)cc(Cl)c2)C(C)C)c1OC(C)=O [Cmpd 628] | B (≤ 80) | A (> 80) | A (> 80) | A (> 80) |  |  |  | 
COc1ccnc(C(=O)N[C@@H](C)C(=O)O[C@@H](C)[C@H](Oc2ccc(C(F)(F)F)cc2)C(C)C)c1OC(C)=O [Cmpd 629] | B (≤ 80) | B (≤ 80) | A (> 80) | A (> 80) |  |  |  | 
CC[C@H](C)[C@H](NC(=O)c1nccc(OC)c1OC(C)=O)C(=O)O[C@@H](C)[C@H](Oc1cc(F)ccc1F)C(C)C [Cmpd 630] | D | D | A (> 80) | A (> 80) |  |  |  | 
COc1ccnc(C(=O)N[C@@H](C)C(=O)O[C@@H](C)[C@H](Oc2cccc3ccccc23)C(C)C)c1OC(C)=O [Cmpd 631] | B (≤ 80) | D | A (> 80) | A (> 80) |  |  |  | 
COc1ccnc(C(=O)N[C@@H](C)C(=O)O[C@@H](C)[C@H](Oc2ccc3ccccc3c2)C(C)C)c1OC(C)=O [Cmpd 632] | D | D | A (> 80) | A (> 80) |  |  |  | 
COc1ccnc(C(=O)N[C@H](C(=O)O[C@@H](C)[C@H](Oc2ccc3ccccc3c2)C(C)C)C(C)C)c1OCOC(C)=O [Cmpd 633] | B (≤ 80) | A (> 80) | A (> 80) | A (> 80) |  |  |  | 
COc1ccnc(C(=O)N[C@@H](C)C(=O)O[C@@H](C)[C@H](Oc2ccc(Cl)cc2Cl)c2ccccc2)c1OCOC(C)=O [Cmpd 634] | A (> 80) | A (> 80) | A (> 80) | B (≤ 80) |  |  |  | 
COc1ccnc(C(=O)N[C@@H](C)C(=O)O[C@@H](C)[C@H](Oc2ccc(Cl)cc2Cl)c2ccccc2)c1OC(C)=O [Cmpd 635] | A (> 80) | A (> 80) | A (> 80) | B (≤ 80) |  |  |  | 
COc1ccnc(C(=O)N[C@@H](C)C(=O)O[C@@H](C)[C@H](Oc2ccc(Cl)cc2)c2ccccc2)c1OCOC(C)=O [Cmpd 636] | A (> 80) | A (> 80) | A (> 80) | A (> 80) |  |  |  | 
COc1ccnc(C(=O)N[C@@H](C)C(=O)O[C@@H](C)[C@H](Oc2cccc(Cl)c2)c2ccccc2)c1OC(C)=O [Cmpd 638] | A (> 80) | A (> 80) | A (> 80) | B (≤ 80) |  |  |  | 
COc1ccnc(C(=O)N[C@@H](C)C(=O)O[C@@H](C)[C@H](Oc2cc(F)cc(Cl)c2)c2ccccc2)c1OCOC(C)=O [Cmpd 641] | A (> 80) | A (> 80) | A (> 80) | B (≤ 80) |  |  |  | 
CC[C@H](NC(=O)c1nccc(OC)c1OCOC(C)=O)C(=O)O[C@@H](C)[C@H](Oc1cc(F)cc(Cl)c1)c1ccccc1 [Cmpd 643] | A (> 80) | A (> 80) | A (> 80) | B (≤ 80) |  |  |  | 
CC[C@H](NC(=O)c1nccc(OC)c1OC(C)=O)C(=O)O[C@@H](C)[C@H](Oc1cc(F)cc(Cl)c1)c1ccccc1 [Cmpd 644] | A (> 80) | A (> 80) | A (> 80) | B (≤ 80) |  |  |  | 
CCC(CC)[C@@H](Oc1cccc(F)c1)[C@H](C)OC(=O)[C@@H](NC(=O)c1nccc(OC)c1OCOC(C)=O)C(C)C [Cmpd 645] | D | A (> 80) | A (> 80) | A (> 80) | A (> 80) | A (> 80) | A (> 80) | A (> 80)
CCC(CC)[C@@H](Oc1ccc(F)cc1)[C@H](C)OC(=O)[C@@H](NC(=O)c1nccc(OC)c1OCOC(C)=O)C(C)C [Cmpd 646] | B (≤ 80) | B (≤ 80) | A (> 80) | A (> 80) | A (> 80) | A (> 80) | A (> 80) | A (> 80)
CCC(CC)[C@@H](Oc1cccc(Cl)c1)[C@H](C)OC(=O)[C@@H](NC(=O)c1nccc(OC)c1OCOC(C)=O)C(C)C [Cmpd 647] | A (> 80) | B (≤ 80) | A (> 80) | B (≤ 80) |  |  |  | 
CCC(CC)[C@@H](Oc1ccc(Cl)cc1)[C@H](C)OC(=O)[C@@H](NC(=O)c1nccc(OC)c1OCOC(C)=O)C(C)C [Cmpd 648] | B (≤ 80) | A (> 80) | A (> 80) | B (≤ 80) |  |  |  | 
CCC(CC)[C@@H](Oc1ccc(Cl)cc1Cl)[C@H](C)OC(=O)[C@@H](NC(=O)c1nccc(OC)c1OCOC(C)=O)C(C)C [Cmpd 649] | D | D | A (> 80) | B (≤ 80) |  |  |  | 
CCC(CC)[C@@H](Oc1cc(F)ccc1F)[C@H](C)OC(=O)[C@@H](NC(=O)c1nccc(OC)c1OCOC(C)=O)C(C)C [Cmpd 650] | D | B (≤ 80) | A (> 80) | B (≤ 80) |  |  |  | 
CCC(CC)[C@@H](Oc1cc(F)cc(Cl)c1)[C@H](C)OC(=O)[C@@H](NC(=O)c1nccc(OC)c1OCOC(C)=O)C(C)C [Cmpd 651] | A (> 80) | A (> 80) | A (> 80) | B (≤ 80) |  |  |  | 

Source: patent US20180000085A1, “USE OF PICOLINAMIDE COMPOUNDS WITH FUNGICIDAL ACTIVITY” (DOW AGROSCIENCES LLC, priority 2014, published 2018)
